Our source for the Activity and TIME values is ChEMBL document CHEMBL3813609, “Efficient protein knockdown of HaloTag-fused proteins using hybrid molecules consisting of IAP antagonist and HaloTag ligand” (Bioorg Med Chem, 2016).

What all share (assay type): cell-based
Assay [1] has as its target Cyclic AMP-responsive element-binding protein 1 (Homo sapiens) (UniProt P16220). The experiment in a line: Induction of degradation of halo-tagged CREB1 (unknown origin) expressed in HEK293 cells at 10 uM by Western blot analysis. In general terms: A western blot detects proteins with antibodies after separation by electrophoresis.
Assay [2] has as its target Transcription factor Jun (Homo sapiens) (UniProt P05412). The experiment in a line: Induction of degradation of halo-tagged c-jun (unknown origin) expressed in HEK293 cells assessed as time required to reduce level of halo-tagged c-jun at 10 uM by Western blot analysis.
Assay [3] concerns the target Tumor necrosis factor (Homo sapiens) (UniProt P01375). The experiment in a line: Induction of degradation of halo-tagged TNFalpha (unknown origin) expressed in HEK293 cells at 10 uM after 24 hrs by Western blot analysis.
The target is the same in assay [4]. The experiment in a line: Induction of degradation of halo-tagged human TNFalpha expressed in HEK293 cells at 30 uM after 6 hrs by Western blot analysis.
Assay [5] has the same target. In words: Induction of degradation of halo-tagged human TNFalpha expressed in HEK293 cells at 1 uM after 6 hrs by Western blot analysis.
For assay [6], the system named is HEK293. The experiment in a line: Induction of degradation of bacterial haloalkane dehalogenase expressed in HEK293 cells at 1 uM after 6 hrs by Western blot analysis. Particulars: Bacteria.
The target of assay [7] is Tumor necrosis factor (Homo sapiens) (UniProt P01375). In words: Induction of degradation of halo-tagged human TNFalpha expressed in HEK293 cells at 1 uM after 6 hrs by Western blot analysis in presence of proteasome inhibitor MG132.
Assay [8] concerns the target Cell division control protein 42 homolog (Homo sapiens) (UniProt P60953). The experiment in a line: Induction of degradation of halo-tagged human Cdc42 expressed in HEK293 cells at 1 uM after 6 hrs by Western blot analysis.
Assay [9] deals with HEK293. In words: Increase in level of bacterial haloalkane dehalogenase expressed in HEK293 cells at 0.1 to 0.3 uM after 6 hrs by Western blot analysis. Conditions: Bacteria.
Assay [10] addresses Tumor necrosis factor (Homo sapiens) (UniProt P01375). The experiment in a line: Increase in level of halo-tagged human TNFalpha expressed in HEK293 cells at 0.1 to 0.3 uM after 6 hrs by Western blot analysis.
Assay [11] has the same target. In words: Induction of degradation of halo-tagged human TNFalpha expressed in HEK293 cells after 6 hrs by Western blot analysis.

The source made the active and inactive calls. No cut-off for these calls is given here. Where a SMILES comes first, the peptide text is derived from it. [ ]: non-standard residue; d: D form. The star is where a group is joined. Dip = N[C@H](C(=O)O)C(c1ccccc1)c1ccccc1; X2 = ClCCCCCCOCCOCCOCCOCCOCCN*; Chg = N[C@H](C(=O)O)C1CCCCC1; NMeA = CN[C@@H](C)C(=O)O; X1 = ClCCCCCCOCCOCCOCCN*

Tumor necrosis factor (Homo sapiens), sequence (P01375 whole entry): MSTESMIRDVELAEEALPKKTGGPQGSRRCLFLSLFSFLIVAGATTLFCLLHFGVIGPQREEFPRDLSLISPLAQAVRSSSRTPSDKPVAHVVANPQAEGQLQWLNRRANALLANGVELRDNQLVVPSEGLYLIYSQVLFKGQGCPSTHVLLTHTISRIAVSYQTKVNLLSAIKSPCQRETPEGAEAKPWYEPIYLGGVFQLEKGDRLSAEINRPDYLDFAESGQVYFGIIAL
Cyclic AMP-responsive element-binding protein 1 (Homo sapiens), sequence (P16220 whole entry): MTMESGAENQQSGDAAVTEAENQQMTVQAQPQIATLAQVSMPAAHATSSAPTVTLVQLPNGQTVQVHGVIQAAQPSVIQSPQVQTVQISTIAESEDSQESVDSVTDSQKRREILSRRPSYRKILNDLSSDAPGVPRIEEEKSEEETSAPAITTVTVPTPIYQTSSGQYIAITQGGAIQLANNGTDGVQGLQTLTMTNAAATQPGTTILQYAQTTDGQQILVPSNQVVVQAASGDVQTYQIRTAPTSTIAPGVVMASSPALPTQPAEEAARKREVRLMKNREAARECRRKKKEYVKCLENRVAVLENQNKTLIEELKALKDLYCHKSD
Transcription factor Jun (Homo sapiens), sequence (P05412 whole entry): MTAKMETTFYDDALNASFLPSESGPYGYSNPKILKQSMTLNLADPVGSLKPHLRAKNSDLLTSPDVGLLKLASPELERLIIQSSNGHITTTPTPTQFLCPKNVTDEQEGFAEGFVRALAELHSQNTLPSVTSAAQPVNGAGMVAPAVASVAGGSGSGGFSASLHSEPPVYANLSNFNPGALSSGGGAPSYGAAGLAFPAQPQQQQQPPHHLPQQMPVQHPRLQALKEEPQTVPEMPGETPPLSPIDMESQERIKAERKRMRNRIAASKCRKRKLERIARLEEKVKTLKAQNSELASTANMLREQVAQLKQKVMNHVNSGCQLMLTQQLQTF
Cell division control protein 42 homolog (Homo sapiens), sequence (P60953 whole entry, looked up): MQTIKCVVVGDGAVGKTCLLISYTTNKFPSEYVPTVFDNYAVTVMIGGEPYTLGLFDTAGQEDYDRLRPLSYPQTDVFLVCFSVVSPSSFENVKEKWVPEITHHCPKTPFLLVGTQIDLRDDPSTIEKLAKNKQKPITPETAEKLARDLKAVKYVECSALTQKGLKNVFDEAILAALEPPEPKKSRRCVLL

Consider `CC(C)C[C@H](NC(=O)[C@@H](O)[C@H](N)Cc1ccccc1)C(=O)NCCOCCOCCOCCCCCCCl`, for which the outcome in [1] was Active. Also, the TIME in [2] was 21 h.
As for `CC(C)C[C@H](NC(=O)[C@@H](O)[C@H](N)Cc1ccccc1)C(=O)NCCOCCOCCOCCOCCCCCCCl`, the outcome in [3] and in assay [1] was Active. Also, the TIME in assay [2] came out at 21 h. For the same molecule, the outcome in assay [4] was inactive.
On to `CC(C)C[C@H](NC(=O)[C@@H](O)[C@H](N)Cc1ccccc1)C(=O)NCCOCCOCCOCCOCCOCCCCCCCl`, for which the result in [1] was Active. The TIME in assay [2] turned out to be 21 h.
For `CC(C)C[C@H](NC(=O)[C@@H](O)[C@H](N)Cc1ccccc1)C(=O)NCCOCCOCCOCCOCCOCCOCCCCCCCl`, in that order: “Active” and 21 h.
`NCCOCCOCCOCCCCCCCl`: in assay [5], the outcome was inactive.
For the molecule `CN[C@@H](C)C(=O)N[C@H](C(=O)N1CCC[C@H]1C(=O)N[C@H](C(=O)NCCOCCOCCOCCCCCCCl)C(c1ccccc1)c1ccccc1)C1CCCCC1` (H-[NMeA][Chg]P[Dip]-X1), the result (with HEK293 [6]; in the assay on HEK293 [9]; in [10]) was Active. In addition, the outcome in assay [7] and in assay [8] was inactive. Further, the Activity result in [11] is “Dose-dependent effect”.
In the case of `CN[C@@H](C)C(=O)N[C@H](C(=O)N1CCC[C@H]1C(=O)N[C@H](C(=O)NCCOCCOCCOCCOCCOCCCCCCCl)C(c1ccccc1)c1ccccc1)C1CCCCC1` (H-[NMeA][Chg]P[Dip]-X2), the outcome in [5] was inactive. The result (with HEK293 [6]; in assay [8]; in the assay on HEK293 [9]; in [10]) was Active.
As for `CN[C@@H](C)C(=O)NC(C(=O)N1CCC[C@H]1C(=O)N[C@H](C(=O)OC)C(c1ccccc1)c1ccccc1)C1CCCCC1` (single isomer, unassigned), the outcome in assay [5] was inactive.
